Experimental data published in patent US9556165B2 (priority 2012, dated 2017).
Converted amounts (≈) assume the structure as drawn. Where two headings read alike, the source gives them in different places.

Legend:
Format in all cases: cell-based
E. coli ATCC25922 = assay: MIC determination, broth microdilution (CLSI); settings: Escherichia coli, ATCC25922, strain 1
K. pneumoniae 60 = assay: MIC determination, broth microdilution (CLSI); settings: Klebsiella pneumoniae, 60, strain 2
E. cloacae 34654 = assay: MIC determination, broth microdilution (CLSI); settings: Enterobacter cloacae, 34654, strain 3
C. freundii K21/3034 = assay: MIC determination, broth microdilution (CLSI); settings: Citrobacter freundii, K21/3034, strain 4
M. morganii 126/3048 = assay: MIC determination, broth microdilution (CLSI); settings: Morganella morganii, 126/3048, strain 5
P. aeruginosa PAO1 = assay: MIC determination, broth microdilution (CLSI); settings: Pseudomonas aeruginosa, PAO1, strain 6
[1] = system: P. aeruginosa 2297 (AmpC wt); assay: MIC determination, broth microdilution (CLSI); settings: Pseudomonas aeruginosa, strain 7
[2] = system: P. aeruginosa 2297-con (AmpC derepressed); assay: MIC determination, broth microdilution (CLSI); settings: Pseudomonas aeruginosa, read-out: strain 8 MIC, strain 8
A. baumannii ATCC15308 = assay: MIC determination, broth microdilution (CLSI); settings: Acinetobacter baumannii, ATCC15308, strain 9
S. maltophilia ICB7569 = assay: MIC determination, broth microdilution (CLSI); settings: Stenotrophomonas maltophilia, ICB7569, strain 10
S. aureus 133 = assay: MIC determination, broth microdilution (CLSI)
H. influenzae ATCC 49247 = assay: MIC determination, broth microdilution (CLSI); settings: Haemophilus influenzae, ATCC49247, strain 12; broth microdilution; read-out: MIC strain 12 (H. influenzae ATCC 49247)
S. pneumoniae 113 = assay: MIC determination, broth microdilution (CLSI); settings: Streptococcus pneumoniae, 113, strain 13; broth microdilution; read-out: MIC strain 13 (S. pneumoniae 113)
B. fragilis 6688 = assay: MIC determination, broth microdilution (CLSI); settings: Bacteroides fragilis, 6688, strain 15; broth microdilution; read-out: MIC strain 15 (B. fragilis 6688)
C. perfringens DSM756 = assay: microbe, parasite or virus in culture; settings: Clostridium perfringens, DSM756, read-out: MIC strain 16 (C. perfringens DSM756), strain 16; broth microdilution
E. coli J62 = assay: MIC determination, broth microdilution (CLSI); settings: Escherichia coli, J62, strain 17; broth microdilution; read-out: MIC strain 17 (E. coli J62)
E. coli J62-TEM-3 = assay: MIC determination, broth microdilution (CLSI); settings: Escherichia coli, J62TEM3, read-out: MIC strain 18 (E. coli J62-TEM-3), strain 18; broth microdilution
Bacteria = assay: MIC determination in combination with β-lactamase inhibitors (constant 4 μg/mL)
[3] = Staphylococcus aureus, 133, strain 11, read-out: strain 11 MIC
[4] = Staphylococcus aureus, 133, strain 14, broth microdilution, read-out: MIC strain 14 (S. aureus 133)

SMILES	MIC (E. coli ATCC25922) [µg/mL]	MIC (K. pneumoniae 60) [µg/mL]	MIC (E. cloacae 34654) [µg/mL]	MIC (C. freundii K21/3034) [µg/mL]	MIC (M. morganii 126/3048) [µg/mL]	MIC (P. aeruginosa PAO1) [µg/mL]	MIC [1] [µg/mL]	MIC [2] [µg/mL]	MIC (A. baumannii ATCC15308) [µg/mL]	MIC (S. maltophilia ICB7569) [µg/mL]	MIC (S. aureus 133; [3]) [µg/mL]	MIC (S. aureus 133; [4]) [µg/mL]	MIC (H. influenzae ATCC 49247) [µg/mL]	MIC (S. pneumoniae 113) [µg/mL]	MIC (B. fragilis 6688) [µg/mL]	MIC (C. perfringens DSM756) [µg/mL]	MIC (E. coli J62) [µg/mL]	MIC (E. coli J62-TEM-3) [µg/mL]	MIC strain 19 (E. coli J62-TEM-3 + 4 μg/mL clavulanic acid) (Bacteria) [µg/mL]	MIC strain 20 (E. coli J62-TEM-3 + 4 μg/mL sulbactam) (Bacteria) [µg/mL]	other results
CC1(C)[C@H](NC(=O)/C(=N\OCc2ccc(C(=N)N)cc2)c2csc(N)n2)C(=O)N1OS(=O)(=O)O [Example 57, (2Z)-2-(2-Amino-1,3-thiazol-4-yl)-2-{[(4-carbamimidoylbenzyl)oxy]imino}-N-[(3S)-2,2-dimethyl-4-oxo-1-(sulfooxy)azetidin-3-yl]ethanamide]	1 (≈ 1.95 µM)	2 (≈ 3.91 µM)	2 (≈ 3.91 µM)	1 (≈ 1.95 µM)	1 (≈ 1.95 µM)	32 (≈ 62.6 µM)	32 (≈ 62.6 µM)	16 (≈ 31.3 µM)	2 (≈ 3.91 µM)	32 (≈ 62.6 µM)	≤ 0.063	4 (≈ 7.82 µM)	0.125 (≈ 0.244 µM)	≤ 0.063	1 (≈ 1.95 µM)	2 (≈ 3.91 µM)	2 (≈ 3.91 µM)	32 (≈ 62.6 µM)	1	1	MIC strain 21 (E. coli J62-TEM-3 + 4 μg/mL tazobactam) (Bacteria): 2 µg/mL
C[C@H]1[C@H](NC(=O)/C(=N\OCCOc2ccc(C(=N)N)cc2)c2nc(N)sc2Cl)C(=O)N1S(=O)(=O)O [Example 61, (2S,3S)-3-{[(2Z)-2-(2-Amino-5-chloro-1,3-thiazol-4-yl)-2-{[2-(4-carbamimidoylphenoxy)ethoxy]imino}acetyl]amino}-2-methyl-4-oxoazetidine-1-sulfonic acid]	2 (≈ 3.66 µM)	2 (≈ 3.66 µM)	2 (≈ 3.66 µM)	1 (≈ 1.83 µM)	0.5 (≈ 0.916 µM)	2 (≈ 3.66 µM)	2 (≈ 3.66 µM)	16 (≈ 29.3 µM)	2 (≈ 3.66 µM)	16 (≈ 29.3 µM)	≤ 0.063	8 (≈ 14.7 µM)	0.25 (≈ 0.458 µM)	≤ 0.063	8 (≈ 14.7 µM)	8 (≈ 14.7 µM)	2 (≈ 3.66 µM)	8 (≈ 14.7 µM)	2	2	MIC strain 21 (E. coli J62-TEM-3 + 4 μg/mL tazobactam) (Bacteria): 2 µg/mL
CC1(C)[C@H](NC(=O)/C(=N\OCCOc2ccc(C(=N)NCC(=O)O)cc2)c2csc(N)n2)C(=O)N1OS(=O)(=O)O [Example 73, N-[{4-[2-({[(1Z)-1-(2-Amino-1,3-thiazol-4-yl)-2-{[(3S)-2,2-dimethyl-4-oxo-1-(sulfo-oxy)azetidin-3-yl]amino}-2-oxoethylidene]amino}oxy)ethoxy]phenyl}(imino)methyl]glycine]	0.5 (≈ 0.834 µM)	0.5 (≈ 0.834 µM)	0.5 (≈ 0.834 µM)	0.5 (≈ 0.834 µM)	0.5 (≈ 0.834 µM)	16 (≈ 26.7 µM)	32 (≈ 53.4 µM)	32 (≈ 53.4 µM)	16 (≈ 26.7 µM)	32 (≈ 53.4 µM)	≤ 0.063	32 (≈ 53.4 µM)	0.25 (≈ 0.417 µM)	≤ 0.063	8 (≈ 13.3 µM)	4 (≈ 6.67 µM)	1 (≈ 1.67 µM)	32 (≈ 53.4 µM)	0.5	0.5	MIC strain 21 (E. coli J62-TEM-3 + 4 μg/mL tazobactam) (Bacteria): 1 µg/mL
Cc1sc(C(=N)N)nc1OCCO/N=C(\C(=O)N[C@@H]1C(=O)N(OS(=O)(=O)O)C1(C)C)c1csc(N)n1 [Example 74, (2Z)-2-(2-Amino-1,3-thiazol-4-yl)-2-({2-[(2-carbamimidoyl-5-methyl-1,3-thiazol-4-yl)oxy]ethoxy}imino)-N-[(3S)-2,2-dimethyl-4-oxo-1-(sulfooxy)azetidin-3-yl]ethanamide]	1 (≈ 1.78 µM)	2 (≈ 3.55 µM)	4 (≈ 7.11 µM)	1 (≈ 1.78 µM)	1 (≈ 1.78 µM)	16 (≈ 28.4 µM)	32 (≈ 56.9 µM)	32 (≈ 56.9 µM)	2 (≈ 3.55 µM)	16 (≈ 28.4 µM)	≤ 0.063	32 (≈ 56.9 µM)	0.25 (≈ 0.444 µM)	≤ 0.063	2 (≈ 3.55 µM)	2 (≈ 3.55 µM)	4 (≈ 7.11 µM)	16 (≈ 28.4 µM)	1	1	MIC strain 21 (E. coli J62-TEM-3 + 4 μg/mL tazobactam) (Bacteria): 2 µg/mL
